Source: patent publication US20090081197A1 (Palatin Technologies, Inc., priority 2007, published 2009)
Non-standard residues stand in square brackets, D forms with d. Residues, ends and D or L forms follow the SMILES beside them. *: point of attachment. dPhe(4-Cl) = N[C@H](Cc1ccc(Cl)cc1)C(=O)O; Ahp = NCCCCCCC(=O)O; Bn = c1ccc(C*)cc1

Assays:
[1] = target: T1, MC4-R (Homo sapiens, UniProt P32245); test: cAMP agonist stimulation, high receptor density system (10 ng/mL doxycycline); conditions: for Efficacy/Intrinsic Activity: 10 ng/mL doxycycline, high receptor density hMC4-R system, NDP-α-MSH maximal cAMP = 1.0
[2] = target: T2, MC1-R (Mus musculus, UniProt Q01727); test: Competitive inhibition assay using [I^125]-NDP-α-MSH, B-16 mouse melanoma cell membranes; format: binding; conditions: for inhibition at 1 µM: 1 μM test compound, read-out: Inhibition at 1 μM (NDP-α-MSH) In Normal System, MC1-R
T2 construct: B-16 mouse melanoma cells (containing MC1-R); endogenous in cells
Summary of the method: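 Tracer was 0.4 nM for MC3-R and MC5-R, 0.2 nM for MC4-R and 0.1 nM for MC1-R. Bound radioactivity was gamma-counted after filtration; values are triplicate means, with results below 0% reported as 0%.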

[3] = target: T1, MC4-R; test: Assay for neutral antagonist, Schild analysis (pA2) against NDP-α-MSH; format: cell-based; set-up: expressed in transfected cells; host or cells: HEK-293; conditions: Schild analysis vs NDP-α-MSH; read-out: pA2 value as antagonist at MC4-R in a normal system (converted)
Description: Assay for Neutral Antagonist. […] These studies were carried out in HEK-293 cells expressing the MC4-R receptor. Cells were incubated with the compounds in the presence of the agonist NDP-α-MSH and the extent of antagonism was measured by the decrease in the level of intracellular cAMP. Screening the compounds for antagonists was done at a single concentration of NDP-α-MSH (1.0 nM) over a compound concentration range of 0.5-5000 nM.
Experimental details were similar to the analysis for agonistic activity described above. Briefly, cells were pre-incubated for 30 minutes with the test compounds at concentrations between 0.5 nM and 5000 nM. The cells were then stimulated with NDP-α-MSH at a concentration of 1 nM for 1 hour. For Schild analysis, the interactions were studied using at least 3 concentrations of the compounds, separated by a log unit, over a full range of the agonist (0.005-5000 nM). cAMP levels was measured in the cell lysates after appropriate dilution. Nonlinear regression analysis with Prism Graph-Pad software was used for Schild analysis and to obtain EC50 values. pA2 values were derived from the Schild plot of the data.

[4] = IP (and IN) food intake, mice; format: in vivo; conditions: mouse, IP, 10 mg/kg, 4 hours
Summary of the method: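 Male Sprague-Dawley rats dosed IV (0.5-3, up to 10 mg/kg) or IP (0.5-10, up to 50 mg/kg); male C57BL/6 mice dosed IP. Change in food intake and body weight over 24 h post-dose versus 1-week vehicle baseline, with 48 and 72 h reversal checks.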

T1 sequence (P32245 whole entry): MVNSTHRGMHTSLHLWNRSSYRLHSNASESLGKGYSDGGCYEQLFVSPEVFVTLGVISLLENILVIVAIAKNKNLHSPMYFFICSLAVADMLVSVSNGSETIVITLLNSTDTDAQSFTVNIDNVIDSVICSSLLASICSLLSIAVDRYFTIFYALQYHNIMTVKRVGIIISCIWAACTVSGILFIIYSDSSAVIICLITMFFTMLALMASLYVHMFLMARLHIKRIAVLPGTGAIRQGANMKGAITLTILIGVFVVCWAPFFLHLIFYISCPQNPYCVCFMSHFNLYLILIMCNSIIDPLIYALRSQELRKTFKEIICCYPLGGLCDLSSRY
T2 sequence (Q01727 whole entry): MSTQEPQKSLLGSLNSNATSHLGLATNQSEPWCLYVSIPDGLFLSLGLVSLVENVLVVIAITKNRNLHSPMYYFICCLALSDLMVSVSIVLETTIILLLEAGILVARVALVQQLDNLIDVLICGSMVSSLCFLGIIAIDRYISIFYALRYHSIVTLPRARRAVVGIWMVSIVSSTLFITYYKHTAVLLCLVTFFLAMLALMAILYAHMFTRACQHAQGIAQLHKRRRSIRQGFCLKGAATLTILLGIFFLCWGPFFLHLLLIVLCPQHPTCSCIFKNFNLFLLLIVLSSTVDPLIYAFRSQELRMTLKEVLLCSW

SMILES	EC50 [1]	Efficacy/Intrinsic Activity [1]	inhibition at 1 µM [2]	Kb [3]	Ki ([2]; read-out: Ki (nM) (NDP-α-MSH) In Normal System, MC1-R)	maximal decrease in food intake [4]
N=C(N)NCCC[C@H](NC(=O)[C@@H](Cc1ccc(Cl)cc1)NC(=O)[C@H](COCc1ccccc1)NC(=O)CCCCCCN)C(=O)N[C@@H](Cc1c[nH]c2ccccc12)C(=O)N[C@@H](CC(=O)O)C(N)=O [Example 13, NH2—(CH2)6—C(═O)-Ser(Bzl)-D-Phe(4-Cl)-Arg-Trp-Asp-NH2] (H-[Ahp]S(Bn)[dPhe(4-Cl)]RWD-NH2)	34 nM	0.72	35%	50.1 nM	–	–
N=C(N)NCCC[C@H]1CN(CCc2ccc3ccccc3c2)CCN1C(=O)[C@H](N)Cc1ccc(Cl)cc1Cl [Example 17, N-{3-[(S)-1-[(R)-2-Amino-3-(2,4-dichloro-phenyl)-propionyl]-4-(2-naphthalen-2-yl-ethyl)-piperazin-2-yl]-propyl}-guanidine]	847 nM	0.67	6%	–	1200 nM	86%
